In patent publication US11986471B2, “Compounds and methods of use” (Tango Therapeutics, Inc., priority 2018, dated 2024):

How the values were obtained:
PRMT5 [1] = target: T1, PRMT5 (Homo sapiens, UniProt O14744); assay: PRMT5 IC50 assay in the presence of SAM as cofactor; assay type: biochemical
T1 construct: purchased Viva (custom protein)
Procedure, shortened: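 IC50 values were measured against human PRMT5 with SAM, with MTA, or with no cofactor. Ki was derived from IC50 as Ki=IC50/1.5 with SAM and Ki=IC50/13.5 with MTA, and the Ki(SAM)/Ki(MTA) ratio was then taken.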

PRMT5 [2] = target: T1, PRMT5; assay: PRMT5 IC50 assay with no cofactor; assay type: biochemical
Procedure, shortened: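 Human PRMT5 inhibition, IC50 in μM; cofactor varied (SAM / MTA / none).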

PRMT5 [3] = target: T1, PRMT5; assay: PRMT5 IC50 assay in the presence of MTA as cofactor; assay type: biochemical; settings: for IC50: PRMT5, MTA as cofactor
Procedure, shortened: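 Three cofactor conditions are run: SAM-bound, MTA-bound and cofactor-free enzyme. IC50 is read from each; for the SAM and MTA arms it is divided by 1.5 and 13.5 respectively to give Ki.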

HAP1 MTAP-intact = assay: SDMA in-cell western assay, HAP1 MTAP-intact cell line; assay type: cell-based; settings: Homo sapiens
Procedure, shortened: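 Using an MTAP-isogenic HAP1 cell pair, inhibition of SDMA formation is read by in-cell western and expressed as IC50. MTAP-selectivity is assigned where the ratio between lines reaches 3 fold or greater.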

HAP1 MTAP-deleted = assay: SDMA in-cell western assay, HAP1 MTAP-deleted cell line; assay type: cell-based; settings: for IC50: Homo sapiens, HAP1 MTAP-deleted cell line; for MTAP Intact/Deleted Ratio: IC50 ratio HAP1 MTAP-intact / HAP1 MTAP-deleted
Procedure, shortened: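 In-cell western for SDMA marks; MTAP-deleted (null) HAP1 background; values given as IC50.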

[4] = ratio between Ki in the presence of SAM and Ki in the presence of MTA

T1 sequence (O14744 whole entry): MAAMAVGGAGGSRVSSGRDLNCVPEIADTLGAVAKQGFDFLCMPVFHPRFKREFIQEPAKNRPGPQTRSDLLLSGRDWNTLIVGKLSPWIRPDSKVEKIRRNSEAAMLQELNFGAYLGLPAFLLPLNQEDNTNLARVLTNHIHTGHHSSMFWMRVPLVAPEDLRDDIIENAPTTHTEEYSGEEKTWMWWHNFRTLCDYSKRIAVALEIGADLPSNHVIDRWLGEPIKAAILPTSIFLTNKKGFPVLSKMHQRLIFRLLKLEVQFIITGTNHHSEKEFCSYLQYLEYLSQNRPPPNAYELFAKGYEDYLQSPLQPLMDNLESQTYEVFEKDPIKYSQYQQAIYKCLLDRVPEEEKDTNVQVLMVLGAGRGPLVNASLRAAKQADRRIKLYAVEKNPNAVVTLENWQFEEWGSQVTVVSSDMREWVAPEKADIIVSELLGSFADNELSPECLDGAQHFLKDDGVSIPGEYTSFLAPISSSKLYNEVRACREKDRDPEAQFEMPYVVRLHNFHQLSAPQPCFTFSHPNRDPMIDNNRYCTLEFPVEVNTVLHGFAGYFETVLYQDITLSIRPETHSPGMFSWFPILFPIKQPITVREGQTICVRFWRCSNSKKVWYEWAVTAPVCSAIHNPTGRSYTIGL
T1 sequence (Q9BQA1 whole entry partner): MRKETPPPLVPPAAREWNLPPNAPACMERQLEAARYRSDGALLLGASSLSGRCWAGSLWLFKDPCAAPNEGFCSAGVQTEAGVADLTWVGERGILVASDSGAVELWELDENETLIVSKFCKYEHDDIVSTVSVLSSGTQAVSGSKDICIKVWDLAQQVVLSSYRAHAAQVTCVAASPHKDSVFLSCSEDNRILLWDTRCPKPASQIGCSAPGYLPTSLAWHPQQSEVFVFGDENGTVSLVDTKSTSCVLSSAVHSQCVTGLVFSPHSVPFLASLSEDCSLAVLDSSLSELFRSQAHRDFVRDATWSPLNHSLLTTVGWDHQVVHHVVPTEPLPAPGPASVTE

SMILES | IC50 (PRMT5 [1]) [nM] | IC50 (PRMT5 [2]; read-out: No Co-factor IC50) [nM] | IC50 (PRMT5 [3]) [nM] | SAM/MTA Ratio (PRMT5 [3]; [4]) | IC50 (HAP1 MTAP-intact) [nM] | IC50 (HAP1 MTAP-deleted) [nM] | MTAP Intact/Deleted Ratio (HAP1 MTAP-deleted) | IC50 (PRMT5 [2]) [nM] | SAM/MTA Ratio (PRMT5 [3]; ratio between the Ki in the presence of SAM and the Ki in the presence of MTA)
Cc1c(OCc2cnco2)ccc2c1CCN(C[C@@H](O)CNC(=O)c1ccnc(NC3CCC3)c1)C2 [Compound 179, 2-(cyclobutylamino)-N-[(2S)-2-hydroxy-3-[5-methyl-6-(oxazol-5-ylmethoxy)-3,4-dihydro-1H-isoquinolin-2-yl]propyl]pyridine-4-carboxamide] | 50 to 500 | ≥ 5000 | 50 to 500 | A (a Ki ratio greater than or equal to 10 fold between the Ki in the presence of SAM and the Ki in the presence of MTA) | ≥ 10000 | 1000 to 10000 | C* (an IC50 ratio of less than 3 fold between the IC50 in the HAP1 MTAP-intact cell line and the HAP1 MTAP-deleted cell line) |  | 
O=C(NC[C@H](O)CN1CCc2cc(OCc3c[nH]nn3)ccc2C1)c1ccnc(NC2CCC2)c1 [Compound 207, (S)—N-(3-(6-((1H-1,2,3-triazol-4-yl)methoxy)-3,4-dihydroisoquinolin-2(1H)-yl)-2-hydroxypropyl)-2-(cyclobutylamino)isonicotinamide] | 500 to 5000 | ≥ 5000 | 500 to 5000 | A (a Ki ratio greater than or equal to 10 fold between the Ki in the presence of SAM and the Ki in the presence of MTA) | < 1000 | < 1000 | C* (an IC50 ratio of less than 3 fold between the IC50 in the HAP1 MTAP-intact cell line and the HAP1 MTAP-deleted cell line) |  | 
O=C(NC[C@H](O)CN1CCc2c(ccc(OCc3cnco3)c2Cl)C1)c1cc(NC2COC2)nc(N2CCN(C(=O)C3CC3)CC2)n1 [Compound 297, (S)—N-(3-(5-chloro-6-(oxazol-5-ylmethoxy)-3N-dihydroisoquinolin-2(1H)-yl)-2-hydroxypropyl)-2-(4-(cyclopropanecarbonyl)piperazin-1-yl)-6-(oxetan-3-ylamino)pyrimidine-4-carboxamide] | 50 to 500 | 500 to 5000 | 50 to 500 | A (a Ki ratio greater than or equal to 10 fold between the Ki in the presence of SAM and the Ki in the presence of MTA) | ≥ 10000 | 1000 to 10000 | C* (an IC50 ratio of less than 3 fold between the IC50 in the HAP1 MTAP-intact cell line and the HAP1 MTAP-deleted cell line) |  | 
Cc1ncoc1COc1ccc2c(c1C)CCN(C[C@@H](O)CNC(=O)c1cc(NC3CCC3)nc(N3CCOCC3)c1)C2 [Compound 461, 2-(cyclobutylamino)-N-[(2S)-2-hydroxy-3-{5-methyl-6-[(4-methyl-1,3-oxazol-5-yl)methoxy]-1,2,3,4-tetrahydroisoquinolin-2-yl}propyl]-6-(morpholin-4-yl)pyridine-4-carboxamide] | 50 to 500 |  | 50 to 500 |  | ≥ 10000 | 1000 to 10000 | B* (an IC50 ratio greater than or equal to 3 fold but lower than 10 fold between the IC50 in the HAP1 MTAP-intact cell line and the HAP1 MTAP-deleted cell line) | ≥ 5000 | 
Cc1ncoc1COc1ccc2c(c1C)CCN(C[C@@H](O)CNC(=O)c1cc(NC3CCC3)nc(N3CCN(C(=O)C(C)C)CC3)c1)C2 [Compound 459, 2-(cyclobutylamino)-N-[(2S)-2-hydroxy-3-{5-methyl-6-[(4-methyl-1,3-oxazol-5-yl)methoxy]-1,2,3,4-tetrahydroisoquinolin-2-yl}propyl]-6-[4-(2-methylpropanoyl)piperazin-1-yl]pyridine-4-carboxamide] | 50 to 500 |  | 50 to 500 |  | 1000 to 10000 | < 1000 | A* (an IC50 ratio greater than or equal to 10 fold between the IC50 in the HAP1 MTAP-intact cell line and the HAP1 MTAP-deleted cell line) | 500 to 5000 | A (a Ki ratio greater than or equal to 10 fold between the Ki in the presence of SAM and the Ki in the presence of MTA)
